Results on 6 molecules are retold here after patent US10815197B2, “N-sulfonyl benzamides as voltage-gated sodium channel inhibitors” (SHANGHAI HAIYAN PHARMACEUTICAL TECHNOLOGY CO., LTD., priority 2016, dated 2020).

SMILES strings stand for the structures.

Data set [1] is described as follows: Metabolism stability assay, human liver microsomes. The class given is in vitro ADME. The note with it: for half-life at 1 µM: pH 7.4. How it is done: Assay 4: Metabolism Stability Assay 1. […] Buffer A: 1 L solution of 100 mM potassium dihydrogen phosphate containing 1 mM EDTA (Sigma, V900157-100G) was prepared. Buffer B: 1 L solution of 100 mM dipotassium hydrogen phosphate containing 1 mM EDTA was prepared. Buffer C: 700 mL of buffer B was taken out and titrated with buffer A to pH 7.4. 2. […] 2.2 20 μl (20 mg/mL) of liver microsomes (Corning Lot. NO. 4133007) stock solution was added to 513.4 μl of buffer C on wet ice. 0.75 mg/mL liver microsomal solution was obtained. 2.3 1.5 μl of each of the above-mentioned compound to be tested and ketanserin solution was added to 498.5 μl of liver microsomal solution (0.7 5 mg/mL) respectively on wet ice. 1.5 μM mixed solution of compound to be tested and 1.5 μM mixed solution of ketanserin were obtained. 2.4 At the time points 0, 5, 15, 30, 45, and 60 min, 30 μl of the mixed solution of compound to be tested and 30 μl of the mixed solution of ketanserin were dispensed into the reaction plate on wet ice, respectively. 2.5 5 mg reduced coenzyme II (Roche, 10621706001) was weighed and dissolved in 1 mL of buffer C. 6 mM reduced coenzyme II solution was obtained. The reduced coenzyme II solution was dispensed into the reaction plate. 2.6 Imipramine was dissolved to give a 10 mM solution. 10 μl of imipramine solution was added to 100 mL of blank acetonitrile to generate the internal reference. 2.7 At 0 min, 135 μL of iced acetonitrile (Merck (Lot. 1778229518)) containing the internal reference was added to each well and then 15 μL of buffer C was added. 2.8 The reaction plate was placed into a 37° C. water bath incubator for 5 min. In the reaction plate, 15 μL of reduced coenzyme II solution was added to each well to initiate the reaction, and the timing was started. At the time points of 5, 15, 30, 45, and 60 min, 135 μL of iced acetonitrile containing the internal reference was added to each well to terminate the reaction. 2.9 The reaction plate was sealed with an aluminum film, placed on a vibration mixer and shaken at 500 rpm for 5 min. The plate was then centrifuged in a centrifuge at 3750 rp for 15 min. 2.10 The sample was diluted with pure water in accordance with the ratio of 1:1 and detected by LC/MS. Half-life: 0.693/K (the slope by plotting based on the incubation time and logarithm of the concentration value) Clearance ratio: (0.693/half-life)*(1/protein concentration (0.5 mg/mL))*(proportional factor) Wherein, the K value and the proportional factor were calculated by those skilled in the art according to the methods described in the prior art and contained in the instructions of the liver microsome product.

For another data set, the target named is T1, hNav1.7 (Homo sapiens, UniProt Q15858).
T1 construct: host or cells: CHO
Description: Manual patch clamp experiment hNav1.7 (CHO-hNav1.7 stable cell line). The class given is cell-based. To be noted: for inhibition at 0.1 µM: compound at 100 nM, read-out: Inhibition of Nav1.7 100 nM(%); for inhibition at 1 µM: compound at 1000 nM, read-out: Inhibition of Nav1.7 1000 nM(%). Summed up: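 Whole-cell manual patch clamp on CHO-hNav1.7 or HEK-hNav1.5 cells, extracellular pH 7.3, CsF-based internal. Sodium current elicited by 20 ms steps to −10 mV from either V1/2 holding (with 50 ms −120 mV prepulse) or −120 mV holding, every 10 s; inhibition from current before versus after dosing, IC50 by Hill fit.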
In general terms: Patch clamp records ionic current or voltage across a cell membrane.

T1 sequence (Q15858 whole entry): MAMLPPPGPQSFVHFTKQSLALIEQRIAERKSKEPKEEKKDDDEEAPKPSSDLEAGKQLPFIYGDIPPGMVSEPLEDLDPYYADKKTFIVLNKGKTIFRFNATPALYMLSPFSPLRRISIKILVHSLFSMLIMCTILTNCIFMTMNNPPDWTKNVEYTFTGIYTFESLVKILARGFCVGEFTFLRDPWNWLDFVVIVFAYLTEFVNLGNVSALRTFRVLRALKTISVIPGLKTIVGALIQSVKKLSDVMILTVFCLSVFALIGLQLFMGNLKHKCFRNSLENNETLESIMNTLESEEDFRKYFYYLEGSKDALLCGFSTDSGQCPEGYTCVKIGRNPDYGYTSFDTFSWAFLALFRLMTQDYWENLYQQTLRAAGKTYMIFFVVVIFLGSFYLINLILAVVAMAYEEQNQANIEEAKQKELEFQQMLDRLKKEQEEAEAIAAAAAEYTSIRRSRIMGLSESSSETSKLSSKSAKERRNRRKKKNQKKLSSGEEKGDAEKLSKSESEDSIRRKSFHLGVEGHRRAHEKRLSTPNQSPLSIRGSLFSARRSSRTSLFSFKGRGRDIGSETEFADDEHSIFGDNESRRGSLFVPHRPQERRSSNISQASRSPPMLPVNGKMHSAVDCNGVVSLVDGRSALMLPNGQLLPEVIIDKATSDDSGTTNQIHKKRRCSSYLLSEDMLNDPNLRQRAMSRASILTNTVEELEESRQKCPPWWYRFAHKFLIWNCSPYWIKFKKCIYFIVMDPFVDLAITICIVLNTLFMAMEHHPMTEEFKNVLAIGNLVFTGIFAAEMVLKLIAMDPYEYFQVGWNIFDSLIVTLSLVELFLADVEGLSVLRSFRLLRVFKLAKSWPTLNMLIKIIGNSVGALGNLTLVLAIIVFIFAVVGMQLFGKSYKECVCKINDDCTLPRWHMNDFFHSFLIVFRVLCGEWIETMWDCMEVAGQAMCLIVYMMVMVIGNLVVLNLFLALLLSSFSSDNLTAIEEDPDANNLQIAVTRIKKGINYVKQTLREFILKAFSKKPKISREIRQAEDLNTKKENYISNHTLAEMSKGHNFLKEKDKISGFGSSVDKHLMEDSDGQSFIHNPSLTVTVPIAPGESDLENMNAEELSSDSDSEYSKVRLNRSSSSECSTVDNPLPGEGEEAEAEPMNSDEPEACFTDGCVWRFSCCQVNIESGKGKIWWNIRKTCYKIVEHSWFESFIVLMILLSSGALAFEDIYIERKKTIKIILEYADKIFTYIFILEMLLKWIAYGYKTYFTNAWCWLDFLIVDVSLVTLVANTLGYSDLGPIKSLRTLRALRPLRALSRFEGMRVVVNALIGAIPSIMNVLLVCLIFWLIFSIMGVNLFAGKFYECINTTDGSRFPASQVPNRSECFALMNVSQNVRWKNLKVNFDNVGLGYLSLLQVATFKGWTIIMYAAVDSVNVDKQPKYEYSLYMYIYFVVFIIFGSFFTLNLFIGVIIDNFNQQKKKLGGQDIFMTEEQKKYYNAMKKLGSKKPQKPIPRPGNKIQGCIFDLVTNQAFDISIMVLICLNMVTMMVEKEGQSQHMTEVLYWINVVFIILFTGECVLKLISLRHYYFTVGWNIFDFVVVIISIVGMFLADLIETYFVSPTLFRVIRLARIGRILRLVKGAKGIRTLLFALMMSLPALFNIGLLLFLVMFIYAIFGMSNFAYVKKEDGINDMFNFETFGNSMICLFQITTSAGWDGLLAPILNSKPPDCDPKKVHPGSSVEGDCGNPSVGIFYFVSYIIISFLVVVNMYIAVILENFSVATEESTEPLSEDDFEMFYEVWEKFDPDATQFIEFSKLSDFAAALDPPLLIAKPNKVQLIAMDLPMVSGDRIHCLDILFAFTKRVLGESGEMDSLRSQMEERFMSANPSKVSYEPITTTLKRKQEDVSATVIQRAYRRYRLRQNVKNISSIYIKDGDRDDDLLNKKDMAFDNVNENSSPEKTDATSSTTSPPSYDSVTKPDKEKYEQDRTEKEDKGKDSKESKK

As for `CCc1cc(N2CCN(Cc3cc(F)c(C(=O)NS(=O)(=O)C4CC4)cc3Cl)CC2)ccc1Cl` [Compound Z-178], in data set [1], the “Clearance” value was 23.88 mL/min/kg and the half-life at 1 µM was determined as 1.21 h. Moreover, at hNav1.7, the inhibition at 0.1 µM was 89.1% and the inhibition at 1 µM amounted to 98.7%.
As for `Cc1ccc(N2CCN(Cc3cc(F)c(C(=O)NS(=O)(=O)C4CC4)cc3Cl)CC2)cc1Cl` [Compound Z-177], in data set [1], the “Clearance” value was 0.00 mL/min/kg and the “T1/2(min)” value is “∞”. In addition, on hNav1.7, the inhibition at 0.1 µM worked out at 89.2% and the inhibition at 1 µM came to 98%.
For the molecule `O=C(NS(=O)(=O)C1CC1)c1cc(Cl)c(CN2CCN(c3ccc(C4CC4)c(Cl)c3)CC2)cc1F` [Compound Z-173], in data set [1], the “Clearance” value was 6.20 mL/min/kg and the half-life at 1 µM came to 4.67 h. Moreover, on hNav1.7, the inhibition at 0.1 µM is 93.8% and the inhibition at 1 µM was determined as 100%.
Turning to `CCc1cc(C(=O)NS(=O)(=O)C2CC2)c(F)cc1CN1CCN(c2ccc(OC(F)(F)F)cc2)CC1` [Compound Z-189, N-(cyclopropylsulfonyl)-5-ethyl-2-fluoro-4-((4-(4-(trifluoromethoxy)phenyl)piperazin-1-yl)methyl)benzamide], in data set [1], the “Clearance” value was found to be 2.74 mL/min/kg and the “T1/2(min)” value is given as “∞”. For the same molecule, on hNav1.7, the inhibition at 0.1 µM amounted to 83.8% and the inhibition at 1 µM was 99.2%.
On to `C[C@@H]1CN(c2ccc(Cl)c(Cl)c2)CCN1Cc1cc(F)c(C(=O)NS(=O)(=O)C2CC2)cc1Cl` [Compound Z-172, (R)-5-Chloro-N-(cyclopropylsulfonyl)-4-((4-(3,4-dichlorophenyl)-2-methylpiperazin-1-yl)methyl)-2-fluorobenzamide], for which, in data set [1], the “Clearance” value was 2.20 mL/min/kg and the half-life at 1 µM came to 13.1 h. Moreover, on hNav1.7, the inhibition at 0.1 µM was 89.1% and the inhibition at 1 µM is 97.2%.
Consider `Cc1cc(N2CCN(Cc3cc(F)c(C(=O)NS(=O)(=O)C4CC4)cc3Cl)CC2)ccc1Cl` [Compound Z-164], for which, in data set [1], the “Clearance” value worked out at 20.12 mL/min/kg and the half-life at 1 µM was determined as 1.44 h. On hNav1.7, the inhibition at 0.1 µM turned out to be 89.7% and the inhibition at 1 µM came out at 102%. Further, at hNav1.7 (read-out: Nav1.7(IC50/nM)), the IC50 worked out at 24.6 nM.

In general, half-life refers to the time in which the quantity being followed falls by half. Read a high half-life as slow decline. Usually inhibition stands for the drop in the measured response relative to a control, in per cent.
